The source of these data is patent publication US20250017859A1, “SOLID DISPERSION, PREPARATION METHOD, AND PHARMACEUTICAL COMPOSITION THEREOF” (Anxo Pharmaceutical Co., Ltd., priority 2023, published 2025).

SMILES strings stand for the structures. Converted amounts (≈) assume the structure as drawn. Counter-ions that a name gives are not always drawn.

A short description of series [1]: Dissolution test 1: solubility by paddle method in pH 6.0+0.01% SDS medium. It is filed as physicochemical. The protocol:
Dissolution tests of experimental group 1 to experimental group 28 produced by spray drying or hot melt extrusion, control group lurasidone HCl and lurasidone are performed to analyze the solubility of each experimental group and control group lurasidone HCl and lurasidone. The dissolution test is performed by paddle method in 500 mL of medium with a pH value of 6.0+0.01% SDS, in which a rotation speed is 100 rpm and a sampling time is 60 minutes.
For comparing the applicability of the carriers suitable for solid dispersion including lurasidone, solid dispersion of comparative group 1 (including crospovidone, a kind of common carrier ingredient) is prepared according to Example 1.2 (HME) and the weight ratio of table 12, and the solubility is tested according the abovementioned method of Example 1.3.1.

A short description of series [2]: Animal test: pharmacokinetics in fasted rats. As to conditions: male, Sprague-Dawley, rat, plasma; rats under fasting state; dose equal to 10 mg/kg lurasidone HCl. It is filed as in vivo. How it is done:
Lurasidone HCl is used as control group, experimental groups 14-17, 22 and 28 are used as tested group, the pharmacokinetics of each group is evaluated in male Sprague-Dawley rats.
Specifically, control group and experimental groups 14-17, 22 and 28 are administrated to rats under fasting state, respectively, in which the dosage contains 10 mg/kg of lurasidone HCl or the amount of lurasidone equal to 10 mg/kg lurasidone HCl. The number of experimental rats in each group is three, and the sampling time is 0, 0.25, 0.5, 1, 1.5, 2, 4, 6, 8 and 24 hours for analyzing pharmacokinetic results, which are shown in table 15.

For series [3] the following is noted: cited from earlier work.

The Solubility is the dissolved amount per volume that the medium holds. By AUC(0-inf) is commonly meant total exposure, with the tail of the curve extrapolated. A low value points to low exposure. As usually defined, the Cmax is the highest concentration seen after dosing. In series [1] (Table 11, paddle method, 500 mL medium pH 6.0+0.01% SDS, 100 rpm, sampling time 60 minutes, HCl), `O=C1[C@@H]2[C@H]3CC[C@H](C3)[C@@H]2C(=O)N1C[C@@H]1CCCC[C@H]1CN1CCN(c2nsc3ccccc23)CC1` [Lurasidone HCl] registered a Solubility of 0.46 µg/mL. For the same compound, the Solubility in series [1] (Table 12, carrier comparison PVAP vs crospovidone, method of Example 1.3.1, HCl) came out at 0.46 µg/mL. In series [2], this compound returned an AUC(0-inf) of 102 ng·h/mL and a Cmax of 32 ng/mL.
For `O=C1[C@@H]2[C@H]3CC[C@H](C3)[C@@H]2C(=O)N1C[C@@H]1CCCC[C@H]1CN1CCN(c2nsc3ccccc23)CC1` [Lurasidone], the Solubility turned out to be 0.09 µg/mL (≈ 0.183 µM) in series [1] (Table 11, paddle method, 500 mL medium pH 6.0+0.01% SDS, 100 rpm, sampling time 60 minutes) and 0.09 µg/mL (≈ 0.183 µM) in series [1] (Table 12, carrier comparison PVAP vs crospovidone, method of Example 1.3.1). Besides, in series [3], the solubility in water entry is recorded as “lower than 0.1 mg/mL”.
